The values that follow are results of earlier work, collected in paper PMC4139154 (Biochemistry, 2014).

For orientation: Kd means the free concentration of one partner at which half of the binding sites on the other are occupied at equilibrium, for simple one-to-one binding.

The structures appear in SMILES notation.

The target of one data set is nNOS. Particulars: read-out: Kd of imidazole for nNOS.
A further data set addresses eNOS. Particulars: read-out: Kd of imidazole for eNOS.
In another data set the target is iNOS. The conditions noted are these: read-out: Kd of imidazole for iNOS.

As to `c1c[nH]cn1` [imidazole], the Kd was 160 µM on nNOS, 150 µM at eNOS and 42 µM at iNOS.
